Measured values published in patent US20100093642A1, “NOVEL POLYPEPTIDES” (priority 2006, published 2010).
≈ marks a conversion by molar mass, not a printed value. Where two headings read alike, the source gives them in different places. Residues, ends and D or L forms follow the SMILES beside them. No end group written: not given here.

Columns and labels:
[1] = tested on: Candida albicans (ATCC 10231)
How it was run: (§1)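 Broth microdilution in half-strength potato dextrose broth, final 2×10^5 spores per ml, peptides in two-fold dilutions from 50 μM to 0.1 μM final. Incubated in the dark without shaking at 25° C. (37° C. for C. albicans) for 48 h; MIC is lowest concentration giving 50% inhibition of visible growth, scored microscopically.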

[2] = tested on: Saccharomyces cerevisiae; details: 48 h
How it was run: as §1

[3] = tested on: Botrytis cinerea 101; details: 48 h
How it was run: as §1

[4] = tested on: E. coli (ATCC 25922); type: cell-based, Escherichia coli
How it was run: (§2)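 Peptide fractions were incubated with actively growing bacteria in Mueller Hinton medium at a starting concentration of 3×10^4 cells per ml. Growth was monitored continuously in a Bioscreen C reader; polymyxin B served as reference.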

[5] = tested on: S. aureus (ATCC 9144); type: cell-based, Staphylococcus aureus
How it was run: as §2

[6] = tested on: Staphylococcus aureus, ATCC 9144; type: cell-based; details: non-clinical isolate; 37° C.; 3×10^6 cells per ml
Description: (§3) The antibacterial activities of the different peptides were determined by continuous monitoring of bacterial growth with a Bioscreen C microbiology reader (Labsystems Oy, Helsinki, Finland). The test was performed in 100-well flat-bottomed honeycomb plates, in which 50 μl of test fractions were incubated with 50 μl of a suspension of an actively growing culture of bacteria diluted in Mueller Hinton medium to a starting concentration of 3×10^4 cells per ml. The Gram-negative bacteria, Listonella (Vibrio) anguillarum, serotype O2 (FT 1801, a fish pathogenic strain), Pseudomonas aeruginosa and E. coli (ATCC 25922), and the Gram-positive bacteria, C. glutamicum (ATCC 13032) and S. aureus (ATCC 9144), were chosen as test bacteria. The growth chamber was maintained at either 20 or 37° C. during the incubation period. The absorbance was measured at 2 h intervals for 48 h by a turbidometric method with vertical light photometry and a wide band filter (420-580 nm), which is more insensitive to color change in the sample compared to single wavelength detection. Antibacterial activity was determined when the optical density (OD) of the growth control (bacteria plus water) reached an absorbance of 0.3-0.4. Fractions were regarded as active when the OD was less than 50% of the growth control. Polymyxin B (Sigma, St. Louis, Mo., USA), Lactoferricin B, Cecropin P1 and Hyalophora cecropia Cecropin B were used as reference.
(§4) The antimicrobial molecules were also tested against drug resistant clinical isolates, such as the commonly encountered multi-resistant human pathogen S. aureus (MRSA) K15-64 and the glycopeptide (vancomycin)-resistant Enterococccus faecium (GREF) K9-28. The non-clinical isolates Escherichia coli (ATCC 25922), Pseudomonas aeruginosa (ATCC 27853), Corynebacterium glutamicum (ATCC 13032), and Staphylococcus aureus (ATCC 9144) were also tested for comparison. Serial dilutions of synthetic peptides were made in double distilled water and tested according to the method described above. However, in these experiments the starting concentration of bacteria were 3×10^6 cells per ml and the temperature in the growth chamber was 37° C. Polymyxin B was used as positive control for the Gram-negative bacteria.

[7] = tested on: Corynebacterium glutamicum, ATCC 13032; type: cell-based; details: non-clinical isolate; 37° C.; 3×10^6 cells per ml
Description: as §3, §4

[8] = tested on: Escherichia coli, K15-58; type: cell-based; details: clinical isolate; 37° C.; 3×10^6 cells per ml
Description: as §3, §4

[9] = tested on: Acinetobacter baumannilii, K15-9; type: cell-based; details: clinical isolate; 37° C.; 3×10^6 cells per ml
Description: as §3, §4

[10] = tested on: Citrobacter freundii, K15-75; type: cell-based; details: clinical isolate; 37° C.; 3×10^6 cells per ml
Description: as §3, §4

[11] = tested on: Staphylococcus aureus (MRSA), K15-64; type: cell-based; details: multi-resistant clinical isolate; 37° C.; 3×10^6 cells per ml
Description: as §3, §4

[12] = tested on: Enterococcus faecium (GREF), K9-28; type: cell-based; details: vancomycin-resistant clinical isolate; 37° C.; 3×10^6 cells per ml
Description: as §3, §4

[13] = tested on: Bacillus spp K13-61; type: cell-based; details: clinical isolate; 37° C.; 3×10^6 cells per ml
Description: as §3, §4

[14] = tested on: Pseudomonas K15-60; type: cell-based
Description: as §3, §4

[15] = tested on: Salmonella K14-40; type: cell-based; details: clinical isolate; 37° C.; 3×10^6 cells per ml
Description: as §3, §4

[16] = tested on: Klebsiella K15-72; type: cell-based; details: clinical isolate; 37° C.; 3×10^6 cells per ml
Description: as §3, §4

[17] = yeast, more than 50% inhibition of visible growth, 48 h, 37° C.
[18] = yeast, more than 50% inhibition of visible growth

Row | Compound | Minimal inhibitory concentration (MIC), Candida albicans ([1]; ATCC 10231, 48 h) | Minimal inhibitory concentration (MIC), Saccharomyces cerevisiae [2] | Minimal inhibitory concentration (MIC), Botrytis cinerea [3] | Minimal inhibitory concentration, E. coli [4] | Minimal inhibitory concentration, S. aureus ([5]; ATCC 9144) | Minimal inhibitory concentration (MIC), Candida albicans [1, 17] | Minimal inhibitory concentration (MIC), Saccharomyces cerevisiae [2, 18] | Minimal inhibitory concentration, S. aureus ([5]; 37° C.) | Minimal inhibitory concentration, Staphylococcus aureus, ATCC 9144 [6] | Minimal inhibitory concentration, Corynebacterium glutamicum, ATCC 13032 [7] | Minimal inhibitory concentration, Escherichia coli, K15-58 [8] | Minimal inhibitory concentration, Acinetobacter baumannilii, K15-9 [9] | Minimal inhibitory concentration, Citrobacter freundii, K15-75 [10] | Minimal inhibitory concentration, Staphylococcus aureus (MRSA), K15-64 [11] | Minimal inhibitory concentration, Enterococcus faecium (GREF), K9-28 [12] | Minimal inhibitory concentration, Bacillus spp K13-61 [13] | Minimal inhibitory concentration, Pseudomonas K15-60 [14] | Minimal inhibitory concentration, Salmonella K14-40 [15] | Minimal inhibitory concentration, Klebsiella K15-72 [16]
1 | CC[C@H](C)[C@H](NC(=O)CNC(=O)[C@H](CO)NC(=O)[C@H](CCCCN)NC(=O)[C@@H](NC(=O)[C@H](C)NC(=O)[C@H](Cc1c[nH]cn1)NC(=O)[C@H](CO)NC(=O)[C@@H](NC(=O)[C@H](CCCCN)NC(=O)[C@H](Cc1c[nH]cn1)NC(=O)[C@H](Cc1ccccc1)NC(=O)[C@@H](NC(=O)[C@H](CCCCN)NC(=O)[C@H](CCCCN)NC(=O)[C@H](Cc1ccccc1)NC(=O)C(Cc1c[nH]c2ccc(Br)cc12)NC(=O)CN)[C@@H](C)O)C(C)C)C(C)C)C(=O)N[C@@H](Cc1c[nH]cn1)C(=O)N[C@@H](C)C(=O)O (some centres unmarked) [P17 HC-Br (1-20)] (HELM PEPTIDE1{G.[O=C(C(Cc1c[nH]c2ccc(Br)cc12)N[*:1])[*:2]].F.K.K.T.F.H.K.V.S.H.A.V.K.S.G.I.H.A}$$$$V2.0; N-terminus and C-terminus assumed) | 6.25 µM (≈ 14.7 µg/mL) | 12.5 µM (≈ 29.3 µg/mL) | 50 µM (≈ 117 µg/mL) | 6.25 µM (≈ 14.7 µg/mL) | 100 µM (≈ 234 µg/mL) | – | – | – | – | – | – | – | – | – | – | – | – | – | –
2 | CC[C@H](C)[C@H](NC(=O)CNC(=O)[C@H](CO)NC(=O)[C@H](CCCCN)NC(=O)[C@@H](NC(=O)[C@H](C)NC(=O)[C@H](Cc1c[nH]cn1)NC(=O)[C@H](CO)NC(=O)[C@@H](NC(=O)[C@H](CCCCN)NC(=O)[C@H](Cc1c[nH]cn1)NC(=O)[C@H](Cc1ccccc1)NC(=O)[C@@H](NC(=O)[C@H](CCCCN)NC(=O)[C@H](CCCCN)NC(=O)[C@H](Cc1ccccc1)NC(=O)C(Cc1c[nH]c2ccc(Br)cc12)NC(=O)CN)[C@@H](C)O)C(C)C)C(C)C)C(=O)N[C@@H](Cc1c[nH]cn1)C(=O)N[C@@H](C)C(=O)NCC(=O)N[C@@H](CCC(N)=O)C(=O)N[C@@H](CCCNC(=N)N)C(=O)NCC(=O)N[C@@H](CS)C(=O)N[C@@H](CO)C(=O)N[C@@H](C)C(=O)N[C@@H](CC(C)C)C(=O)NCC(=O)N[C@@H](Cc1ccccc1)C(=O)O (some centres unmarked) [P17 HC-Br] (HELM PEPTIDE1{G.[O=C(C(Cc1c[nH]c2ccc(Br)cc12)N[*:1])[*:2]].F.K.K.T.F.H.K.V.S.H.A.V.K.S.G.I.H.A.G.Q.R.G.C.S.A.L.G.F}$$$$V2.0) | – | – | 25 µM (≈ 83 µg/mL) | 1.56 µM (≈ 5.18 µg/mL) | 1.56 µM (≈ 5.18 µg/mL) | 6.25 µM (≈ 20.8 µg/mL) | 6.25 µM (≈ 20.8 µg/mL) | 6.25 µM (≈ 20.8 µg/mL) | 12.5 µM (≈ 41.5 µg/mL) | 0.78 µM (≈ 2.59 µg/mL) | 3.12 µM (≈ 10.4 µg/mL) | 1.56 µM (≈ 5.18 µg/mL) | 1.56 µM (≈ 5.18 µg/mL) | 6.25 µM (≈ 20.8 µg/mL) | 0.78 µM (≈ 2.59 µg/mL) | 6.25 µM (≈ 20.8 µg/mL) | 3.12 µM (≈ 10.4 µg/mL) | 6.25 µM (≈ 20.8 µg/mL) | 3.12 µM (≈ 10.4 µg/mL)
3 | GWFKKTFHKVSHAVKSGIHA [P17 HC (1-20)] | 6.25 µM | 12.5 µM | 100 µM | 6.25 µM | 100 µM | – | – | – | >50 µM | 3.12 µM | 6.25 µM | 6.25 µM | 12.5 µM | >50 µM | 6.25 µM | 50 µM | 12.5 µM | 50 µM | >50 µM
4 | GWFKKTFHKVSHAVKSGIHAGQRGCSALGF [P17 HC] | – | – | 50 µM | 1.56 µM | – | 6.25 µM | 6.25 µM | – | 12.5 µM | 0.78 µM | 1.56 µM | 3.12 µM | 0.78 µM | 6.25 µM | 0.39 µM | 6.25 µM | 3.12 µM | 6.25 µM | 3.12 µM
